Measured values published in US5874272A, “Inosine-guanosine kinase” (Kyowa Hakko Kogyo Co., Ltd., priority 1998, dated 1999).

Columns and labels:
Type in all cases: biochemical
inosine-guanosine kinase [1] = molecular target: T1, inosine-guanosine kinase (Escherichia coli, UniProt P0AEW6); experiment: Substrate specificity (phosphate-donor / phosphate-acceptor); details: for suitability as phosphate-donor (in words): 5 mM phosphate source instead of ATP, 300 mM KCl, 30° C., inosine as acceptor; for suitability as phosphate-acceptor (in words): ATP or dATP as phosphate-donor
T1 construct: made in house; host or cells: Escherichia coli
T1 sequence (P0AEW6 1-434): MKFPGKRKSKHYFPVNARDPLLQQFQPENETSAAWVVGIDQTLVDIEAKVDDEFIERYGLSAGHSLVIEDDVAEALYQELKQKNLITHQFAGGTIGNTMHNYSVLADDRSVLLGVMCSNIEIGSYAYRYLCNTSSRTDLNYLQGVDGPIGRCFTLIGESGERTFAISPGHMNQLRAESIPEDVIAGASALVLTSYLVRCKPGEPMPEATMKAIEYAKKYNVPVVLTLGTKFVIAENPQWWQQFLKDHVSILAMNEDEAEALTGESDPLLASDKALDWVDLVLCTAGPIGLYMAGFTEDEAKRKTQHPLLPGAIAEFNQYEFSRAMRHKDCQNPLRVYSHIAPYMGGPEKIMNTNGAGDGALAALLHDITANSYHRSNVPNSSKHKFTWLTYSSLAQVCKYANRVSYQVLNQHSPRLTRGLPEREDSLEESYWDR
Method: (§1) The activity of the inosine-guanosine kinase obtained is determined as follows. A reaction solution (hereafter referred to as reaction solution a) having a composition of 100 mM HEPES buffer (pH 7.2), 10 mM MgSO4, 50 mM KCl, 1 mM ATP and 1 mM inosine is brought into contact with the inosine-guanosine kinase in a concentration of about 10 μg protein/ml followed by reaction at 30° C. for about 30 minutes. During the course of reaction, a part of the reaction solution is subjected to sampling intermittently. After the reaction solution is diluted to 1/20 with 0.2M NaH2 PO4 (adjusted the pH to 2.6 with H3 PO4) to stop the reaction, an amount of 5'-IMP in the stopped reaction solution is quantitatively determined by HPLC. Analysis by HPLC is made by using 0.2M NaH2 PO4 (pH 2.6) at a flow rate of 1 ml/min. as an eluting solution and Asahipak GS-320H (manufactured by Asahi Chemical Co., Ltd.) as a column. Detection of components was made by the absorbance at UV absorbance at 254 nm as an index. Quantitative determination was made by comparing absorbancy with that of the standard.
In the method for determination of inosine-guanosine kinase activity described above, a reaction is carried out at 30° C. by changing the concentration of KCl to 300 mM in the composition of reaction solution a and adding various neutralized phosphate sources to the reaction solution instead of ATP in a final concentration of 5 mM. […] Where ATP or dATP is used as phosphate-donor, inosine and guanosine are preferred as phosphate-acceptor.
FIG. 1 relates to substrate specificity for inosine-guanosine kinase, wherein the ordinate represents an amount of 5'-IMP produced and the abscissa represents time.

inosine-guanosine kinase [2] = molecular target: T1, inosine-guanosine kinase; experiment: Activation of inosine-guanosine kinase by divalent or trivalent metal ion salts instead of MgSO4; details: for Produced IMP: 10 mM metal salt instead of MgSO4, 300 mM KCl; for activating action on the enzyme (in words): metal ion salt instead of MgSO4, 300 mM KCl
Method: as §1
In the method for determination of inosine-guanosine kinase activity described above, a reaction is carried out by changing the buffer to Tris-hydrochloride buffer (pH 8.0), and varying the concentration of KCl in the composition of reaction solution a. […] Next, activation is examined in the system where the concentration of KCl is changed to 300 mM in the composition of reaction solution a, by adding various divalent or trivalent metal ion salts instead of MgSO4.

inosine-guanosine kinase [3] = molecular target: T1, inosine-guanosine kinase; experiment: Effect of added metal salts on inosine-guanosine kinase activity (inhibitor test); details: 300 mM KCl; for Relative Activity (%): 1 mM metal salt added to reaction solution a, 30° C., 30 minutes, no metal salt = 100; for inhibition of the enzyme by metal ions (in words): 1 mM metal salt
Method: as §1
In the method for determination of inosine-guanosine kinase activity described above, the activity is determined by reacting at 30° C. for 30 minutes except that the concentration of KCl is changed to 300 mM and 1 mM metal salt is added to the composition of reaction solution a. The activity is determined as a standard when no metal salt is added. The enzyme is inhibited by metal ions such as CO^2+, Cu^2+, Zn^2+, etc.

inosine-guanosine kinase [4] = molecular target: T1, inosine-guanosine kinase; experiment: K+ (KCl) dependency of inosine-guanosine kinase; details: Tris-hydrochloride buffer (pH 8.0); KCl varied, or 100 mM NaCl instead of KCl
Method: as §1
In the method for determination of inosine-guanosine kinase activity described above, a reaction is carried out by changing the buffer to Tris-hydrochloride buffer (pH 8.0), and varying the concentration of KCl in the composition of reaction solution a. […]

Structure (SMILES): Nc1ncnc2c1ncn2[C@@H]1O[C@H](COP(=O)(O)O)[C@@H](O)[C@H]1O [5'-AMP, adenosine monophosphate]
- suitability as phosphate-donor (in words) (inosine-guanosine kinase [1]): could not be phosphate-donors

Structure (SMILES): Nc1ccn([C@@H]2O[C@H](COP(=O)(O)O)[C@@H](O)[C@H]2O)c(=O)n1 [5'-CMP, cytidine monophosphate]
- suitability as phosphate-donor (in words) (inosine-guanosine kinase [1]): could not be phosphate-donors

Structure (SMILES): O=C(O)c1cc(=O)[nH]c(=O)n1[C@@H]1O[C@H](COP(=O)(O)O)[C@@H](O)[C@H]1O [5'-OMP, orotic acid monophosphate]
- suitability as phosphate-donor (in words) (inosine-guanosine kinase [1]): could not be phosphate-donors

Structure (SMILES): Nc1ncnc2c1ncn2[C@@H]1O[C@H](COP(=O)(O)OP(=O)(O)O)[C@@H](O)[C@H]1O [ADP, adenosine diphosphate]
- suitability as phosphate-donor (in words) (inosine-guanosine kinase [1]): could not be phosphate-donors

Structure (SMILES): Nc1ncnc2c1ncn2[C@@H]1O[C@H](COP(=O)(O)OP(=O)(O)OP(=O)(O)O)[C@@H](O)[C@H]1O [ATP, adenosine triphosphate]
- suitability as phosphate-donor (in words) (inosine-guanosine kinase [1]): good substrate

Structure (SMILES): [Ba+2].[Cl-].[Cl-] [BaCl2]
- Produced IMP (inosine-guanosine kinase [2]): 0 mM
- Relative Activity (%) (inosine-guanosine kinase [3]): 116%

Structure (SMILES): [Co+2] [CO^2+]
- inhibition of the enzyme by metal ions (in words) (inosine-guanosine kinase [3]): inhibited

Structure (SMILES): [Ca+2].[Cl-].[Cl-] [CaCl2]
- Produced IMP (inosine-guanosine kinase [2]): 0 mM
- Relative Activity (%) (inosine-guanosine kinase [3]): 107%

Structure (SMILES): [Cl-].[Cl-].[Co+2] [CoCl2]
- Produced IMP (inosine-guanosine kinase [2]): 0.01 mM
- Relative Activity (%) (inosine-guanosine kinase [3]): 32%

Structure (SMILES): [Cl][Cu][Cl] [CuCl2]
- Produced IMP (inosine-guanosine kinase [2]): 0 mM
- Relative Activity (%) (inosine-guanosine kinase [3]): 1%

Structure (SMILES): [Cu+2] [Cu^2+]
- inhibition of the enzyme by metal ions (in words) (inosine-guanosine kinase [3]): inhibited

Structure (SMILES): [Cl][Fe][Cl] [FeCl2]
- Produced IMP (inosine-guanosine kinase [2]): 0 mM
- Relative Activity (%) (inosine-guanosine kinase [3]): 112%

Structure (SMILES): [Cl][Fe]([Cl])[Cl] [FeCl3]
- Produced IMP (inosine-guanosine kinase [2]): 0 mM
- Relative Activity (%) (inosine-guanosine kinase [3]): 131%

Structure (SMILES): Nc1nc2c(ncn2[C@@H]2O[C@H](COP(=O)(O)OP(=O)(O)OP(=O)(O)O)[C@@H](O)[C@H]2O)c(=O)[nH]1 [GTP, guanosine triphosphate]
- suitability as phosphate-donor (in words) (inosine-guanosine kinase [1]): could not be phosphate-donors

Structure (SMILES): [K+] [K^+]
- monovalent cation requirement for activation (in words) (inosine-guanosine kinase [4]): requires

Structure (SMILES): [Cl-].[Cl-].[Mg+2] [MgCl2]
- Produced IMP (inosine-guanosine kinase [2]): 0.60 mM

Structure (SMILES): O=S(=O)([O-])[O-].[Mg+2] [MgSO4]
- Produced IMP (inosine-guanosine kinase [2]): 0.68 mM

Structure (SMILES): [Mg+2] [Mg^2+]
- activating action on the enzyme (in words) (inosine-guanosine kinase [2]): exhibit an activating action

Structure (SMILES): [Cl][Mn][Cl] [MnCl2]
- Produced IMP (inosine-guanosine kinase [2]): 0.51 mM
- Relative Activity (%) (inosine-guanosine kinase [3]): 134%

Structure (SMILES): O=S(=O)([O-])[O-].[Mn+2] [MnSO4]
- Produced IMP (inosine-guanosine kinase [2]): 0.64 mM

Structure (SMILES): [Mn+2] [Mn^2+]
- activating action on the enzyme (in words) (inosine-guanosine kinase [2]): exhibit an activating action

Structure (SMILES): [Cl-].[Na+] [NaCl]
- Relative Activity (%) (inosine-guanosine kinase [3]): 104%
- monovalent cation requirement for activation (in words) (inosine-guanosine kinase [4]): no reaction proceeds

Structure (SMILES): [F-].[Na+] [NaF]
- Relative Activity (%) (inosine-guanosine kinase [3]): 96%

Structure (SMILES): O=c1ccn([C@@H]2O[C@H](COP(=O)(O)OP(=O)(O)OP(=O)(O)O)[C@@H](O)[C@H]2O)c(=O)[nH]1 [UTP, uridine triphosphate]
- suitability as phosphate-donor (in words) (inosine-guanosine kinase [1]): the reaction proceeds a little bit

Structure (SMILES): CC(=O)[O-].CC(=O)[O-].[Zn+2] [Zn(CH3 COO)2]
- Produced IMP (inosine-guanosine kinase [2]): 0 mM
- Relative Activity (%) (inosine-guanosine kinase [3]): 5%

Structure (SMILES): O=S(=O)([O-])[O-].[Zn+2] [ZnSO4]
- Produced IMP (inosine-guanosine kinase [2]): 0 mM
- Relative Activity (%) (inosine-guanosine kinase [3]): 5%

Structure (SMILES): [Zn+2] [Zn^2+]
- inhibition of the enzyme by metal ions (in words) (inosine-guanosine kinase [3]): inhibited

Structure (SMILES): CC(=O)OP(=O)(O)O [acetylphosphoric acid]
- suitability as phosphate-donor (in words) (inosine-guanosine kinase [1]): could not be phosphate-donors

Structure (SMILES): Nc1ncnc2c1ncn2[C@H]1C[C@H](O)[C@@H](COP(=O)(O)OP(=O)(O)OP(=O)(O)O)O1 [dATP, deoxyadenosine triphosphate]
- suitability as phosphate-donor (in words) (inosine-guanosine kinase [1]): good substrate

Structure (SMILES): Nc1nc2c(ncn2[C@@H]2O[C@H](CO)[C@@H](O)[C@H]2O)c(=O)[nH]1 [guanosine]
- suitability as phosphate-acceptor (in words) (inosine-guanosine kinase [1]): preferred

Structure (SMILES): OC[C@H]1O[C@@H](n2cnc3c(O)ncnc32)[C@H](O)[C@@H]1O [inosine]
- suitability as phosphate-acceptor (in words) (inosine-guanosine kinase [1]): preferred

Structure (SMILES): O=P(O)(O)O [phosphoric acid]
- suitability as phosphate-donor (in words) (inosine-guanosine kinase [1]): could not be phosphate-donors

Structure (SMILES): O=P(O)(O)OP(=O)(O)O [pyrophosphoric acid]
- suitability as phosphate-donor (in words) (inosine-guanosine kinase [1]): could not be phosphate-donors

Structure (SMILES): O=P(O)(O)OP(=O)(O)OP(=O)(O)OP(=O)(O)O [tetrapolyphosphoric acid]
- suitability as phosphate-donor (in words) (inosine-guanosine kinase [1]): could not be phosphate-donors

Structure (SMILES): O=P(O)(O)OP(=O)(O)OP(=O)(O)O [tripolyphosphoric acid]
- suitability as phosphate-donor (in words) (inosine-guanosine kinase [1]): could not be phosphate-donors
